Holding throughout (test): NCI anticancer screen, dose series, 48 h
Assay [1] concerns RPMI-8226 leukemia.
In assay [2] the test system is SK-OV-3 ovarian.
Assay [3] relates to SR leukemia.
For assay [4], the system named is HOP-92 NSCLC.
The subject of assay [5] is SK-MEL-5 melanoma.
Assay [6] concerns SF-539 CNS.
The test system of assay [7] is ACHN renal.
For assay [8], the system named is KM12 colon.
For assay [9], the system named is SK-MEL-2 melanoma.
In assay [10] the test system is DLD-1 colon.

Several values for one entry are separate records, joined by “and”; a condition that tells them apart may be missing. Equal entries are not always repeated.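 Results reflect a 48-hour exposure of cells in 96-well plates to compound at five concentrations. GI50 is the concentration that inhibits growth by half. Definition used: TGI = concentration required for complete inhibition of growth.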

Consider eleven molecules from PubChem BioAssay (NCI).

Take `Cc1ccc(CCC(=O)C(=O)O)s1`: the TGI in assay [1], in [2], in assay [3], in assay [4], in assay [5] and in assay [6] was greater than 100 µM in each case. Moreover, the TGI in assay [7], in assay [8] and in assay [9] was greater than 100 µM in each case.

`COc1ccc2nc3cc(Cl)ccc3c(NCCNc3c4ccc(Cl)cc4nc4ccc(OC)cc34)c2c1`: the GI50 in assay [1] is 2.04 µM; in assay [2] it was 1.73 µM; in assay [4] it was 2.01 µM; in assay [5], 1.81 µM; in assay [7] it was 1.6 µM; in [9] it was 1.81 µM. In addition, the TGI was 4.59 µM in assay [1]; 3.13 µM in [2]; 3.51 µM in assay [4]; 3.27 µM in assay [5]; 3.11 µM in assay [7]; 3.5 µM in assay [9].

On to `CCCCNC(=O)/N=C/c1c(O)c2ccccc2oc1=O`, for which the TGI in assay [1], in assay [3], in assay [4], in assay [5], in assay [6] and in [7] was greater than 100 µM in each case. The TGI in assay [9] worked out at 66.1 µM.

For `COc1ccc(Sc2ccccc2N)cc1`, the TGI in assay [1] is greater than 100 µM; in assay [2], greater than 100 µM; in [3], greater than 100 µM; in assay [4] it was 74.4 µM; in assay [10], greater than 100 µM; in assay [5], 62.9 µM. Also, the TGI in assay [6], in [7], in assay [8] and in assay [9] was greater than 100 µM each time.

`O=C(N/N=C/c1cc(Br)cc(Br)c1[O-])c1ccccc1O.O=C(N/N=C/c1cc(Br)cc(Br)c1[O-])c1ccccc1O.[Ni+2]`: the TGI in assay [2] was determined as 1.95 µM; in assay [3] it was 1.65 µM; in [4] it was 2.02 µM; in assay [5] it was 1.44 µM; in assay [6] it was 0.72 µM; in assay [7], 1.53 µM. The TGI in assay [8] turned out to be 2.13 µM; in assay [9], 1.3 µM.

Take `COC(=O)C(NC(=O)c1ccccc1)C(c1ccc(Cl)cc1)P(=O)(OC)OC` (centres undefined): the TGI in assay [1], in assay [2], in assay [3], in assay [4], in assay [10] and in assay [5] was greater than 100 µM each time. The TGI in [6], in assay [7], in assay [8] and in [9] was greater than 100 µM in each case.

`NCCCNCCCCN1CC1`: the TGI in assay [1] was greater than 21.3 µM; in assay [4], 4.91 µM; in assay [5] it was 11.7 µM; in assay [6], 3.4 µM; in [8], greater than 30.7 µM.

Consider `COc1ccc(N2NC(c3ccccc3)(c3ccccc3)C(C)C2=O)cc1` (centres undefined), for which the TGI in assay [1], in assay [3], in assay [4], in assay [5], in assay [6] and in [7] was greater than 100 µM each time. Moreover, the TGI in [8] and in [9] was greater than 100 µM in each case.

`COc1ccc(-c2nn(-c3ccc(NC(=O)Nc4ccc(Cl)c(C(F)(F)F)c4)cc3)cc2-c2ccncc2)cc1Cl`: the GI50 was 0.388 µM in [1]; 1.86 µM in assay [3]; 1.14 µM in [4]; 1.5 µM in [5]; 1.53 µM in assay [6]; 1.6 µM in [7]. For the same molecule, the GI50 in [8] was 1.22 µM; in assay [9] it was 1.74 µM. In addition, the TGI worked out at 1.92 µM in [1]; 5.96 µM in assay [3]; 3.84 µM in assay [4]; 2.82 µM in assay [5]; 4 µM in assay [6]; 5.27 µM in [7]. Moreover, the TGI in assay [8] amounted to 4.34 µM; in assay [9], 3.75 µM.

For `CN(C)/N=N/c1nc[nH]c1C(N)=O`, the GI50 in assay [1] was 6.81 µM; in assay [2], 14.2 µM; in assay [3], 64.4 µM; in assay [4] it was 74 µM; in assay [5] it was 120 µM; in assay [6], 47.5 µM. The GI50 is 32.5 µM and 76.6 µM in assay [7]; greater than 156 µM in assay [8]. The TGI in assay [2] was 88.7 µM and 328 µM; in assay [3], greater than 1000 µM; in assay [4], 87.1 µM and 796 µM; in assay [5], 96.2 µM and > 429 µM; in assay [6], 99.3 µM and > 875 µM; in assay [7], greater than 1000 µM. Also, the TGI is greater than 1000 µM in assay [8]; 74.1 µM and 396 µM in assay [9].

For the molecule `COC1OC2=CCC3C(=O)NC(=O)C3C2[C@H](OCc2ccccc2)C1OCc1ccccc1` (some centres undefined), the TGI in assay [2] was determined as 30.8 µM; in assay [4], 4.15 µM; in assay [10] it was 3.71 µM; in assay [5] it was 34.1 µM; in assay [6], 31 µM; in assay [7], 34.8 µM. Also, the results for the TGI in assay [8] and in assay [9] were 19.4 µM and 16.4 µM, respectively.
